Measurements taken from ChEMBL document CHEMBL5260858, “Targeting mycobacterial membranes and membrane proteins: Progress and limitations” (Bioorg Med Chem, 2023).
pEC50, pIC50: −log10 of the molar value. Converted amounts (≈) assume the structure as drawn.

Experiments:
[1] = test system: Mycobacterium tuberculosis; assay: Antitubercular activity against Mycobacterium tuberculosis Erdman assessed as bacterial growth inhibition incubated for 1 week by microplate alamar blue assay; format: functional, organism-based; details: 168 h
[2] = test system: Mycobacterium tuberculosis; assay: Antitubercular activity against Mycobacterium tuberculosis H37Rv assessed as bacterial growth inhibition incubated for 7 days by microplate alamar blue assay; format: functional; details: 168 h, time 7 day
[3] = test system: Mycobacterium tuberculosis; assay: Antitubercular activity against Mycobacterium tuberculosis H37Rv assessed as bacterial growth inhibition incubated for 7 days by resazurin reduction microplate assay; format: functional; details: 168 h, time 7 day
[4] = test system: Mycobacterium tuberculosis; assay: Antitubercular activity against Mycobacterium tuberculosis H37Rv infected in BALB/c mouse assessed as reduction in bacterial load at 150 mg/kg, po for 10 days by CFU analysis; format: functional; details: time 10 day
[5] = test system: Mycobacterium tuberculosis; assay: Antitubercular activity against Mycobacterium tuberculosis CDC1551 infected in mouse bone marrow derived macrophage assessed as bacterial growth inhibition for 2 days by spectroscopic analysis; format: functional; details: CDC1551, 48 h, time 2 day
[6] = test system: Mycobacterium tuberculosis; assay: Antitubercular activity against Mycobacterium tuberculosis CDC1551 assessed as bacterial growth inhibition for 6 days by spectroscopic analysis; format: functional, organism-based; details: CDC1551, 144 h
[7] = test system: Mycobacterium tuberculosis; assay: Antimycobacterial activity against Mycobacterium tuberculosis H37Rv assessed as bacterial growth inhibition incubated for 7 days by microplate alamar blue assay; format: functional; details: 168 h, time 7 day
[8] = test system: Mycobacterium tuberculosis; assay: Antimycobacterial activity against Mycobacterium tuberculosis Erdman assessed as bacterial growth inhibition incubated for 7 days by microplate alamar blue assay; format: functional; details: 168 h, time 7 day
[9] = test system: Mycobacterium tuberculosis; assay: In vivo antimycobacterial activity against Mycobacterium tuberculosis Erdman infected in Balb/c mouse assessed as reduction in log10 CFU in lungs at 15 mg/kg,po for 4 weeks […]; format: functional
Mycobacterium avium [10] = assay: Antimycobacterial activity against Mycobacterium avium assessed as bacterial growth inhibition incubated for 7 days by microplate alamar blue assay; format: functional; details: 168 h, time 7 day
[11] = test system: Mycolicibacterium smegmatis; assay: Antitubercular activity against Mycobacterium smegmatis assessed as bacterial growth inhibition; format: functional
[12] = test system: Mycobacterium tuberculosis; assay: In vivo antimycobacterial activity against Mycobacterium tuberculosis H37Rv infected in BALB/c mouse assessed as reduction in bacterial load in lung at 50 mg/kg, po and measured after 3 weeks; format: functional
[13] = test system: Mycobacterium tuberculosis; assay: In vivo antimycobacterial activity against Mycobacterium tuberculosis H37Rv infected in BALB/c mouse assessed as reduction in bacterial load in lung at 100 mg/kg, po and measured after 3 weeks; format: functional
[14] = test system: Mycobacterium tuberculosis; assay: In vivo antimycobacterial activity against Mycobacterium tuberculosis H37Rv infected in BALB/c mouse assessed as reduction in bacterial load in lung at 200 mg/kg, po and measured after 4 weeks; format: functional
[15] = test system: Mycobacterium tuberculosis; assay: In vivo antimycobacterial activity against Mycobacterium tuberculosis H37Rv infected in C57BL/6 mouse assessed as reduction in bacterial load in spleen at 30 mg/kg, po and measured after 10 days by CFU analysis; format: functional; details: time 10 day
[16] = test system: Mycolicibacterium smegmatis; assay: Antitubercular activity against Mycobacterium smegmatis ATCC 607 assessed as zone of inhibition incubated 30 hrs by Kirby-Bauer disc diffusion assay; format: functional
[17] = test system: Mycobacterium tuberculosis; assay: In vivo antimycobacterial activity against Mycobacterium tuberculosis H37Rv infected in C57BL/6 mouse assessed as reduction in bacterial load in spleen at 10 mg/kg, po and measured after 10 days by CFU analysis; format: functional; details: time 10 day
[18] = test system: Mycobacterium tuberculosis; assay: In vivo antimycobacterial activity against Mycobacterium tuberculosis H37Rv infected in C57BL/6 mouse assessed as reduction in bacterial load in lung at 10 mg/kg, po and measured after 10 days by CFU analysis; format: functional; details: time 10 day
[19] = test system: Mycobacterium tuberculosis; assay: In vivo antimycobacterial activity against Mycobacterium tuberculosis H37Rv infected in C57BL/6 mouse assessed as reduction in bacterial load in lung at 30 mg/kg, po and measured after 10 days by CFU analysis; format: functional; details: time 10 day
Mycobacterium avium [20] = assay: Antitubercular activity against Mycobacterium avium assessed as bacterial growth inhibition; format: functional
[21] = test system: Mycobacterium tuberculosis; assay: Antitubercular activity against Mycobacterium tuberculosis H37Rv assessed as bacterial growth inhibition; format: functional
[22] = test system: Mycobacterium tuberculosis; assay: Antitubercular activity against Mycobacterium tuberculosis Erdman assessed as bacterial growth inhibition; format: functional
[23] = test system: Mycobacterium tuberculosis; assay: Antitubercular activity against Mycobacterium tuberculosis H37Rv assessed as bacterial growth inhibition by checkerboard assay; format: functional
[24] = test system: Mycobacterium tuberculosis; assay: Antitubercular activity against Mycobacterium tuberculosis H37Rv assessed as bacterial growth inhibition in presence of clavulanate by checkerboard assay; format: functional
[25] = Selectivity index, ratio of IC50 for cytotoxicity against African green monkey Vero cells to MIC for antitubercular activity against Mycobacterium tuberculosis H37Rv ATCC 27294; format: toxicity, cell-based; details: read-out: Selectivity Index
[26] = test system: Mycobacterium tuberculosis; assay: Antitubercular activity against Mycobacterium tuberculosis H37Rv ATCC 27294 infected in african green monkey Vero cells assessed as bacterial growth inhibition incubated for 6 days by microplate alamar blue assay; format: functional; details: H37Rv ATCC 27294, 144 h, time 6 day
[27] = test system: Mycobacterium tuberculosis; assay: Antitubercular activity against Mycobacterium tuberculosis Erdman ATCC 35801 infected in RAW264.7 cells assessed as inhibition of intracellular bacterial growth incubated for 6 days by microplate alamar blue assay; format: functional; set-up: scale not given: the % may be the effect or the level left; details: time 6 day

## CCCCNc1nc(CC)nc2sc(C)cc12
[1]
  pIC50: 5.57

## O=c1cc(-c2ccc(O)cc2)oc2ccc(O)c(CN3CCC3)c12
[2]
  MIC: 0.45 µg/mL (≈ 1.39 µM)

## CCSc1nc(NC)c2ccc(F)c(F)c2n1
[3]
  MIC: 0.02 µg/mL (≈ 0.0783 µM)
[4]
  Activity: 0.5 log10CFU

## O=C(NCCc1ccc(Cl)cc1)C1(c2cccs2)CCOCC1
[5]
  MIC99: 19.3 µM (≈ 6.75 µg/mL)
[6]
  pEC50: 5.19

## O=[N+]([O-])c1cc(C(F)(F)F)cc2c(=S)nc(N3CCC4(CC3)OCCO4)sc12
[7]
  MIC: 0.02 µg/mL (≈ 0.0461 µM)
[8]
  MIC: 32 µg/mL (≈ 73.8 µM)
[9]
  Activity: 3.4 log10CFU
Mycobacterium avium [10]
  MIC: < 0.05 µg/mL

## CCOC(=O)NC(=O)c1ccsc1NC(=O)c1nc2ccncc2s1
[11]
  MIC: 0.089 µM (≈ 0.0335 µg/mL)
[12]
  Activity: 1.7 log10CFU
[13]
  Activity: 2.3 log10CFU
[14]
  Activity: >1.7 log10CFU

## C=CCN1C(=O)NC(=O)/C(=C/NNC(=O)c2ccncc2)C1=O
[15]
  Activity: 1.3 log10CFU
[16]
  inhibition zone (IZ): 20 mm
[17]
  Activity: 0.6 log10CFU
[18]
  Activity: 1 log10CFU
[19]
  Activity: 2.1 log10CFU

## O=c1cc(-c2ccccc2O)oc2ccc(O)c(CN3CCC3)c12
[2]
  MIC: 0.45 µg/mL (≈ 1.39 µM)

## COc1nc2ccc(Br)cc2cc1[C@@H](c1ccccc1)[C@@](O)(CCN(C)C)c1cccc2ccccc12 [BEDAQUILINE]
Mycobacterium avium [20]
  MIC: 0.01 µg/mL (≈ 0.018 µM)
[21]
  MIC: 0.03 µg/mL (≈ 0.054 µM)

## Cc1c(OCC(F)(F)F)ccnc1CSc1nc2ccccc2[nH]1 [LANSOPRAZOLE SULFIDE]
[22]
  MIC90: 1.21 µM (≈ 0.428 µg/mL)
[21]
  MIC90: 1.13 µM (≈ 0.399 µg/mL)

## CO[C@H]1CCC[C@H]2C1=C(C(=O)OC(C)OC(=O)OC1CCCCC1)N1C(=O)[C@H]([C@@H](C)O)[C@@H]21 (some centres undefined) [SANFETRINEM CILEXETIL]
[23]
  MIC: 7.5 µM
[24]
  MIC: 5 µM

## CC(C)=CCC/C(C)=C/CNCCNC1C2CC3CC(C2)CC1C3 (centres undefined) [SQ109]
[25]
  selectivity ratio: 16.7
[26]
  MIC: 0.7 µM (≈ 0.231 µg/mL)
[27]
  Activity: 99%
